Assay results as given in ChEMBL document CHEMBL3045199, “Synthesis of some (E)-6-[2-(furan-2-yl)ethenyl]-1,2,4-triazin-5-ones and their biological evaluation as antitumor agents” (2013).

How the values were obtained:
Type in all cases: functional
KM12 = assay: Cytotoxicity against Homo sapiens (human) KM12 cells after 48 hr by SRB assay; conditions: KM12, 48 h
DU-145 = assay: Cytotoxicity against Homo sapiens (human) DU145 cells after 48 hr by SRB assay; conditions: DU-145, 48 h
786-0 = assay: Cytotoxicity against Homo sapiens (human) 786-0 cells after 48 hr by SRB assay; conditions: 786-0, 48 h
HCC 2998 = assay: Cytotoxicity against Homo sapiens (human) HCC2998 cells after 48 hr by SRB assay; conditions: HCC 2998, 48 h
HOP-92 = assay: Cytotoxicity against Homo sapiens (human) HOP92 cells after 48 hr by SRB assay; conditions: HOP-92, 48 h
OVCAR-5 = assay: Cytotoxicity against Homo sapiens (human) OVCAR5 cells after 48 hr by SRB assay; conditions: OVCAR-5, 48 h
BT-549 = assay: Cytotoxicity against Homo sapiens (human) BT549 cells after 48 hr by SRB assay; conditions: BT-549, 48 h
NCI-H23 = assay: Cytotoxicity against Homo sapiens (human) NCI-H23 cells after 48 hr by SRB assay; conditions: NCI-H23, 48 h
OVCAR-4 = assay: Cytotoxicity against Homo sapiens (human) OVCAR4 cells after 48 hr by SRB assay; conditions: OVCAR-4, 48 h
UACC-257 = assay: Cytotoxicity against Homo sapiens (human) UACC257 cells after 48 hr by SRB assay; conditions: UACC-257, 48 h
SF-268 = assay: Cytotoxicity against Homo sapiens (human) SF268 cells after 48 hr by SRB assay; conditions: SF-268, 48 h
NCI-H460 = assay: Cytotoxicity against Homo sapiens (human) NCI-H460 cells after 48 hr by SRB assay; conditions: NCI-H460, 48 h
SF-295 = assay: Cytotoxicity against Homo sapiens (human) SF295 cells after 48 hr by SRB assay; conditions: SF-295, 48 h
RXF 393 = assay: Cytotoxicity against Homo sapiens (human) RXF393 cells after 48 hr by SRB assay; conditions: RXF 393, 48 h
OVCAR-8 = assay: Cytotoxicity against Homo sapiens (human) OVCAR8 cells after 48 hr by SRB assay; conditions: OVCAR-8, 48 h
SF-539 = assay: Cytotoxicity against Homo sapiens (human) SF539 cells after 48 hr by SRB assay; conditions: SF-539, 48 h
HT-29 = assay: Cytotoxicity against Homo sapiens (human) HT-29 cells after 48 hr by SRB assay; conditions: HT-29, 48 h
[1] = read-out: LC50 (the source's name)

Nc1cc(-c2ccc(Cl)cc2)nn1-c1nc(=O)c(/C=C/c2ccco2)n[nH]1
TGI (KM12): 32 µM
GI50 (KM12; read-out: GI50): 3.19 µM
CC50 (KM12; [1]): > 100 µM
GI50 (KM12; read-out: pGI50 (converted)): 3.16 µM
LC50 (DU-145): 55.4 µM
TGI (DU-145): 18.3 µM
GI50 (DU-145; read-out: GI50): 3.01 µM
GI50 (DU-145; read-out: pGI50 (converted)): 3.02 µM
LC50 (786-0): > 100 µM
TGI (786-0): 21.2 µM
GI50 (786-0; read-out: GI50): 3.98 µM
GI50 (786-0; read-out: pGI50 (converted)): 3.98 µM
TGI (HCC 2998): > 100 µM
GI50 (HCC 2998; read-out: GI50): 5.59 µM
CC50 (HCC 2998; [1]): > 100 µM
GI50 (HCC 2998; read-out: pGI50 (converted)): 5.62 µM
LC50 (HOP-92): > 100 µM
TGI (HOP-92): 9.28 µM
GI50 (HOP-92; read-out: GI50): 1610 nM
GI50 (HOP-92; read-out: pGI50 (converted)): 1620 nM
LC50 (50% lethal concentration) (OVCAR-5): > 100 µM
TGI (OVCAR-5): 82 µM
GI50 (OVCAR-5; read-out: GI50): 5.49 µM
GI50 (OVCAR-5; read-out: pGI50 (converted)): 5.5 µM
TGI (BT-549): 43.8 µM
GI50 (BT-549; read-out: GI50): 4.42 µM
CC50 (BT-549; [1]): > 100 µM
GI50 (BT-549; read-out: pGI50 (converted)): 4.47 µM
TGI (NCI-H23): 53.9 µM
GI50 (NCI-H23; read-out: GI50): 5.13 µM
CC50 (NCI-H23; [1]): > 100 µM
GI50 (NCI-H23; read-out: pGI50 (converted)): 5.13 µM
LC50 (OVCAR-4): > 100 µM
TGI (OVCAR-4): 28.8 µM
GI50 (OVCAR-4; read-out: GI50): 3.45 µM
GI50 (OVCAR-4; read-out: pGI50 (converted)): 3.47 µM
LC50 (UACC-257): > 100 µM
TGI (UACC-257): 71.8 µM
GI50 (UACC-257; read-out: GI50): 6.59 µM
GI50 (UACC-257; read-out: pGI50 (converted)): 6.61 µM
TGI (SF-268): 25.1 µM
GI50 (SF-268; read-out: GI50): 1990 nM
CC50 (SF-268; [1]): > 100 µM
GI50 (SF-268; read-out: pGI50 (converted)): 2000 nM
TGI (NCI-H460): 13.9 µM
GI50 (NCI-H460; read-out: GI50): 1880 nM
CC50 (NCI-H460; [1]): > 100 µM
GI50 (NCI-H460; read-out: pGI50 (converted)): 1860 nM
TGI (SF-295): 24.3 µM
GI50 (SF-295; read-out: GI50): 1580 nM
CC50 (SF-295; [1]): > 100 µM
GI50 (SF-295; read-out: pGI50 (converted)): 1580 nM
LC50 (RXF 393): > 100 µM
TGI (RXF 393): 54.9 µM
GI50 (RXF 393; read-out: GI50): 13.1 µM
GI50 (RXF 393; read-out: pGI50 (converted)): 13.2 µM
TGI (OVCAR-8): 65.8 µM
GI50 (OVCAR-8; read-out: GI50): 4.47 µM
CC50 (OVCAR-8; [1]): > 100 µM
GI50 (OVCAR-8; read-out: pGI50 (converted)): 4.47 µM
TGI (SF-539): 26.1 µM
GI50 (SF-539; read-out: GI50): 5.49 µM
CC50 (SF-539; [1]): > 100 µM
GI50 (SF-539; read-out: pGI50 (converted)): 5.5 µM
TGI (HT-29): > 100 µM
GI50 (HT-29; read-out: GI50): 7.82 µM
